The record followed here is PMC9848351, “Discovery of new pyridine-quinoline hybrids as competitive and non-competitive PIM-1 kinase inhibitors with apoptosis induction and caspase 3/7 activation capabilities” (Journal of Enzyme Inhibition and Medicinal Chemistry, 2023).

Data set [1] has as its system HepG-2. Nature of the data set: Flow cytometric annexin V/PI analysis of apoptosis, HepG-2. The format is cell-based, human. Particulars: IC50 of compound, 72 h, mean ± SEM. Background: Flow cytometry measures light scatter and fluorescence of single cells or particles in a stream.
The subject of data set [2] is prostate cancer cell line (PC-3). In words: MTT anticancer activity, PC-3. The format is cell-based, human. The following applies: Homo sapiens, 72 h, PC-3, 72 h, mean ± SEM. Summed up: (§1)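 Cells seeded at 5x10^3/well (Caco-2 in DMEM, others in RPMI-1640, 10% FBS) and exposed to serial compound concentrations for 72 h at 37 °C, 5% CO2, starting 24 h after seeding. MTT (3 h, 37 °C) read at 570 nm after DMSO solubilisation; IC50 calculated from viability.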

In data set [3] the test system is Caco-2. In words: Flow cytometric annexin V/PI analysis of apoptosis, Caco-2. The format is cell-based. The following applies: IC50 of compound, 72 h, mean ± SEM. As for the experimental part: (§2) The apoptosis-dependent […] was determined by quantification of annexin-stained apoptotic cells using the FITC signal detector (FL1) against the phycoerythrin emission signal detector (FL2) (Supplementary Page S55). […]
MTT method was used for assaying cell viability 25. Twenty microliters of 5 mg/ml MTT (Sigma, USA) was added to each well and the plate was incubated at 37 °C for 3 h. Then MTT solution was removed, 100 µl DMSO was used and the absorbance of each well was measured with a microplate reader ( BMG LabTech, […]
Germany) at 570 nm. […]
(§3) Graphpad Instat software.
(§4) Determination of the anticancer activity
Anticancer effect of the above-mentioned compounds was evaluated using four human […]
cancer cell lines. […]
All cancer cells (5x10^3 cells/well) were seeded in sterile
96-well plates. After 24h, serial concentrations of the tested compounds and Dox were incubated with four cancer cell lines for 72 h at 37 °C in 5% CO2 incubator. MTT method was done as described above. The Graphpad Instat software was used for calculating the half maximal inhibitory concentration (IC50) values. […]
(§5) Flow cytometric analysis of apoptosis
(§6) Caco-2, PC-3 and NFS-60 cell lines. After trypsinization, the untreated and treated cells were incubated with annexin V/PI for 15 min. Then cells were fixed and incubated with streptavidin-fluorescein (5 µg/mL) for 15 min. The apoptosis-dependent anticancer effect was determined by quantification of annexin-stained apoptotic cells using the FITC signal detector (FL1) against the phycoerythrin emission signal detector (FL2). […]

The test system of data set [4] is PC-3. In words: Flow cytometric annexin V/PI analysis of apoptosis, PC-3. The format is cell-based, human. The following applies: IC50 of compound, 72 h, mean ± SEM. As for the experimental part:
as §2
MTT method was used for assaying cell viability 25. Twenty microliters of 5 mg/ml MTT (Sigma, USA) was added to each well and the plate was incubated at […]
37 °C for 3 h. […]
as §3, §4
Anticancer effect of the above-mentioned compounds was evaluated using four human cancer cell lines. Colon cancer cells (Caco-2) were maintained in DMEM (Lonza, USA) containing 10% FBS while myeloid leukemia cell line (NFS-60), liver cancer cell line (HepG-2) and prostate cancer cell line (PC-3) were cultured in RPMI-1640 (Lonza, USA) supplemented with 10% FBS. All cancer cells (5x10^3 cells/well) were seeded in sterile 96-well plates. After 24h, serial concentrations of the tested compounds and Dox were incubated with four cancer cell lines for 72 h at 37 °C in 5% CO2 incubator. MTT method was done as described above. The Graphpad Instat software was used for calculating the half maximal inhibitory concentration (IC50) values. […]
as §5, §6

Data set [5] concerns Colon cancer cells (Caco-2). In words: MTT anticancer activity, Caco-2. Particulars: for IC50: Homo sapiens, Caco-2, 72 h, MTT, mean ± SEM; for Caco-2 LE: ligand efficiency from IC50 and number of heavy atoms; for Caco-2 LLE: ligand lipophilic efficiency, potency in terms of lipophilicity; for Caco-2 SI: selectivity index, Wi-38 versus Caco-2. The format is cell-based, human. Summed up:
as §1

The test system of data set [6] is liver cancer cell line (HepG-2). In words: MTT anticancer activity, HepG-2. The format is cell-based, human. Particulars: for IC50: Homo sapiens, HepG2, HepG-2, 72 h, MTT, mean ± SEM; for activity against HepG-2 compared to the reference: fold versus doxorubicin IC50. In a few lines: as §1

What is called IC50 is the concentration needed to halve the response being measured. Read a high IC50 as weaker potency. As for `COc1ccc2[nH]c(=O)c(-c3cc(-c4cccc(O)c4)[nH]c(=O)c3C#N)cc2c1` [13c, 6-(3-Hydroxyphenyl)-4-(6-methoxy-2-oxo-1,2-dihydroquinolin-3-yl)-2-oxo-1,2-dihydropyridine-3-carbonitrile], the “total percentage of the apoptotic cell population, HepG-2” value (from here on “total percentage … HepG-2”) in data set [1] was 66.83 ± 1.32%. The same molecule registered an IC50 in data set [2] of 0.0225 ± 0.002 µM. Also, the “total percentage of the apoptotic cell population, Caco-2” value (“total percentage … Caco-2” below) in data set [3] was found to be 51.17 ± 0.33%. Further, in data set [4], the “total percentage of the apoptotic cell population, PC-3” value (shortened to “total percentage … PC-3”) amounted to 57.91 ± 0.34%. In data set [5], it took 0.0337 ± 0.006 µM to reach half-maximal inhibition (IC50), the “Caco-2 LE” value worked out at 0.35, the “Caco-2 LLE” value came to 5.11 and the “Caco-2 SI” value was 1.033. Besides, in data set [6], half-maximal inhibition (IC50) was put at 0.00377 ± 0.0001 µM and the “activity against HepG-2 compared to the reference” value is “thirteen-fold high”.

With `N#Cc1c(-c2cc3ccccc3[nH]c2=O)cc(-c2cccc(O)c2)nc1S` [14a, 6-(3-Hydroxyphenyl)-2-mercapto-4-(2-oxo-1,2-dihydroquinolin-3-yl)pyridine-3-carbonitrile], in data set [1], the “total percentage … HepG-2” value stood at 42.155 ± 0.16%. In addition, in data set [2], the IC50 was 0.0168 ± 0.0001 µM. Besides, the “total percentage … Caco-2” value in data set [3] was found to be 42.17 ± 0.82%. Further, the “total percentage … PC-3” value in data set [4] was 56.545 ± 0.98%. For the same molecule, in data set [5], the IC50 is 0.0141 ± 0.004 µM, the “Caco-2 LE” value worked out at 0.40, the “Caco-2 LLE” value was 5.18 and the “Caco-2 SI” value is given as 21.206. For the same molecule, the IC50 in data set [6] amounted to 0.0127 µM.

For `N#Cc1c(-c2cc3cc(Cl)ccc3nc2N2CCOCC2)cc(-c2cccc(O)c2)[nH]c1=O` [5b, 4-(6-Chloro-2-morpholin-4-yl-quinolin-3-yl)-6-(3-hydroxyphenyl)-2-oxo-1,2-dihydropyridine-3-carbonitrile], the “total percentage … HepG-2” value in data set [1] stood at 58.9 ± 0.88%. Besides, half-maximal inhibition in data set [2] (IC50) required 0.0261 ± 0.004 µM. Also, the “total percentage … Caco-2” value in data set [3] turned out to be 44.045 ± 0.185%. Besides, the “total percentage … PC-3” value in data set [4] is reported as 50.7 ± 0.58%. Moreover, in data set [5], the IC50 was 0.0453 ± 0.001 µM, the “Caco-2 LE” value is recorded as 0.30, the “Caco-2 LLE” value is 3.28 and the “Caco-2 SI” value is 3.775. Also, in data set [6], it took 0.00528 ± 0.0001 µM to reach half-maximal inhibition (IC50).

On to `COc1ccc2nc(N3CCOCC3)c(-c3cc(-c4cccc(O)c4)[nH]c(=O)c3C#N)cc2c1` [5c, 6-(3-Hydroxyphenyl)-4-(6-methoxy-2-morpholin-4-yl-quinolin-3-yl)-2-oxo-1,2-dihydropyridine-3-carbonitrile], for which the “total percentage … HepG-2” value in data set [1] is 54.14 ± 0.42%. The molecule further showed an IC50 in data set [2] of 0.0272 ± 0.003 µM. Besides, the “total percentage … Caco-2” value in data set [3] was 33.89 ± 0.175%. Besides, in data set [4], the “total percentage … PC-3” value amounted to 47.26 ± 0.92%. Also, in data set [5], the IC50 is 0.0361 ± 0.0001 µM, the “Caco-2 LE” value was 0.30, the “Caco-2 LLE” value was 4.00 and the “Caco-2 SI” value came out at 19.861. For the same molecule, in data set [6], the IC50 was determined as 0.0076 ± 0.0001 µM.

For `N#Cc1c(-c2cc3ccccc3[nH]c2=O)cc(-c2cccc(O)c2)[nH]c1=O` [13a, 6-(3-Hydroxyphenyl)-2-oxo-4-(2-oxo-1,2-dihydroquinolin-3-yl)-1,2-dihydropyridine-3-carbonitrile], the “total percentage … HepG-2” value in data set [1] amounted to 70.59 ± 1.07%. For the same molecule, the IC50 in data set [2] stood at 0.02 ± 0.003 µM. In addition, the “total percentage … Caco-2” value in data set [3] is recorded as 58.28 ± 0.26%. Also, in data set [4], the “total percentage … PC-3” value is recorded as 59.71 ± 0.82%. Moreover, in data set [5], half-maximal inhibition (IC50) required 0.0228 ± 0.001 µM, the “Caco-2 LE” value is listed as 0.39, the “Caco-2 LLE” value is listed as 5.31 and the “Caco-2 SI” value was 1.118. In data set [6], the IC50 amounted to 0.00238 µM and the “activity against HepG-2 compared to the reference” value is “twenty-one-fold more active”.
